Read-outs that look alike come from different tables or passages of the source. One block for each compound: values may come before it.
Assays:
[1] = system: MMTV-PyMT mammary tumours; test: MMTV-PyMT transgenic mouse breast cancer model, primary tumour; type: in vivo, mice; details: ratio of average tumour volume treated/vehicle; @67 mpk po qd; p<0.05
Method: (§1) All procedures involving animals were approved by the Animal Welfare and Ethical Review Body of the Institute of Cancer Research and Cancer Research UK Manchester Institute in accordance with National Home Office regulations under the Animals (Scientific Procedures) Act 1986 and according to the guidelines of the Committee of the National Cancer Research Institute Tumour size was determined by caliper measurements of tumour length, width and depth and volume was calculated as volume=0.5236×length×width×depth (mm).
(§2) LOX Inhibitor Treatment of a Transgenic Mouse Breast Cancer Model
MMTV-PyMT (Guy et al, 1992) (FVB) female mice were randomized by non-statistical methods to LOX inhibitor treatment groups from day 70 post-birth, when animals had no detectable tumour. […] Tumour size was determined unblinded by caliper measurements of tumour length, width and depth and volume was calculated as 0.5236×length×width×depth (mm). […]
(§3) For therapeutic efficacy assessment, the ratio of average tumour volume between compound treated and vehicle control treated (T/C) is calculated. […] The efficacy of LOX inhibitors described in this invention, as measured by T/C in a pancreatic cancer model, a colorectal cancer model and a breast cancer model is shown in Table 3 and is significant (p<0.05) for all the data presented.

[2] = system: SW620 human colorectal carcinoma cells (mutant RAS); test: SW620 xenografts, primary tumour; type: in vivo; details: ratio of average tumour volume treated/vehicle; 200 mg/kg po qd; p<0.05
Method: as §1
SW620 xenografts: NCr mice were inoculated subcutaneously in the right flank with 5×10^6 SW620 cells at 100 ul suspension per animal. Groups of 7-8 mice were assigned to treatment following stratified allocation of tumour volumes with a median size of circa 100 mm^3. […] Tumours and weights are measured twice weekly using calipers. […] Frozen samples are kept at −80 degree centigrade until being analysed and the fixed samples stained according to the desired marker.
as §3

[3] = system: PDAC KPC TRP53 R172H (p53 mut) cells; test: PDAC allograft, primary tumour, R172H (p53 mut); type: in vivo, mouse; details: ratio of average tumour volume treated/vehicle; 200 mg/kg po qd; p<0.05
Method: as §1
PDAC allografts: CD1 nu/nu female mice at 6 weeks of age were inoculated subcutaneously in the right flank with 2×10^6 PDAC KPC TRP53 R172H (p53 mut) cells at 100 ul suspension per animal. […] Tumours and weights are measured twice weekly using calipers. […] Frozen samples kept at −80 degree centigrade until being analysed and the fixed samples stained according to the desired marker.
as §3

[4] = system: MDA-MB-231 human breast adenocarcinoma; test: MDA-MB-231 xenografts, primary tumour; type: in vivo; details: ratio of average tumour volume treated/vehicle; 200 mg/kg po qd; p<0.05
Method: as §1
MDA-MB-231 xenografts. […] Tumours and weights are measured twice weekly using calipers and the animals can be imaged using non-invasive method by bioluminescence using IVIS 200 imaging machine, weekly using 150 mg/kg luciferin administrate intraperitoneal or subcutaneous. […] Frozen samples kept at −80 degree centigrade until being analyzed and the fixed samples stained according to desired marker.
as §3

[5] = system: PDAC KP^flC (LOX H1 clone) cells; test: PDAC allograft, primary tumour, p53 wt, LOX o/e; type: in vivo, mouse; details: ratio of average tumour volume treated/vehicle; 200 mg/kg po qd; p<0.05
[6] = system: MMTV-PyMT lung metastases; test: MMTV-PyMT transgenic mouse breast cancer model, lung metastases; type: in vivo, mice; details: @67 mpk po qd, p<0.05
Method: as §2
MMTV-PyMT (Guy et al, 1992) (FVB) female mice were randomized by non-statistical methods to LOX inhibitor treatment groups from day 70 post-birth, when animals had no detectable tumour. Mice were treated daily by oral gavage with LOX inhibitor in vehicle, or daily vehicle (5% DMSO/2.5% Tween20 in water) by oral gavage. Tumour size was determined unblinded by caliper measurements of tumour length, width and depth and volume was calculated as 0.5236×length×width×depth (mm). In all experiments, mice were humanely killed and mammary tumours and lungs were collected when the primary tumours reached ethical limits or signs of ill health.
For lung metastases quantification, all mouse tissue samples were fixed in 10% formalin (Sigma) and embedded in paraffin. […] Lung metastases number was counted and area was measured using ImageScope. […] The ratio of average metastases surface between compound treated and vehicle control treated (T/C) is calculated. The ratio of average metastases numbers between compound treated and vehicle control treated (T/C) is also calculated. […] The antimetastatic efficacy of LOX inhibitors described in this invention, as measured by T/C in a model of breast cancer metastasizing to lungs is shown in Table 3 and is significant (p<0.05) for all the data presented.

LOX = biological target: T1, LOX (Mus musculus, UniProt P28301); test: LOX activity in cysts assay (roGFP2 LOX biosensor in MDCK cysts); type: cell-based; details: for IC50: read-out: LOX biosensor IC50 (cyst); for inhibition at 10 µM: read-out: LOX biosensor inhibition (cyst) @ 10 μM
T1 construct: Full length LOX cDNA was then PCR cloned into pEGFP-N1 (Clonetech), or biosensor vector proGFP2-N1; expressed in transfected cells; host or cells: MDCK cells grown as cysts on Matrigel
T1 sequence (P28301 163-411): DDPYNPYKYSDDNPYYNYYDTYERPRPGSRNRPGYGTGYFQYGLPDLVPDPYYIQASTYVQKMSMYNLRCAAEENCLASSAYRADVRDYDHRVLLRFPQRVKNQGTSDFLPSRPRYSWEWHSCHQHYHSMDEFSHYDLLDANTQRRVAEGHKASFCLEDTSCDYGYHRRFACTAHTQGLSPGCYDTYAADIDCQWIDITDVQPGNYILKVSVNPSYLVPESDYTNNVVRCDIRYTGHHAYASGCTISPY
Method: LOX Activity in Cysts Assay (Tang et al, 2017).
Cell Culture and Transfection
Cell lines were purchased from American Type Culture Collection (ATCC). […] MDCK cell lines were cultured in Dulbecco's Modified Eagle Medium (DMEM):F12 media supplemented with 10% foetal bovine serum (FBS) and 1% Penicillin Streptomycin solution (Pen Strep). Cells were incubated at 37° C. in a humidified incubator with 5% CO2. Lipofectamine 3000 or lentivirus was used to transfect MDCK cells with GFP constructs and cells were selected with G418 (Life Technologies) at 5 mg/ml. Cell culture reagents were purchased from Life Technologies.
To produce MDCK cysts, cells were cultured on Matrigel (Corning) with 2% Matrigel supplemented in DMEM with 10% FBS. Cysts were allowed to form for 10 days before subsequent studies.
Cloning of LOX Expression Constructs
Mouse LOX cDNA was purchased from OriGene. Full length LOX cDNA was then PCR cloned into pEGFP-N1 (Clonetech), or biosensor vector proGFP2-N1 (Hanson, 2004) using the following primers, […] (forward primer) and […] (reverse primer). For the insertion into pEGFP-N1 or proGFP2-N1, NheI and XhoI restriction sites were added to forward and reverse primers accordingly. Mutant LOX constructs were made using QuickChange II site-directed mutagenesis kit (Agilent Technologies) following manufacture's protocol using LOX-GFP as template. To generate, roGFP2 versions of LOX mutant constructs, LOX mutant cDNA was transferred from pEGFP-N1 to proGFP2-N1 using NheI and XhoI.
Confocal Imaging and Imaging Analysis
Photomicrographs of live MDCK cysts with a Leica TCS SP8 X confocal system were used to image the biosensor. The oxidised biosensor was excited using a 405 nm laser, while the reduced biosensor was excited with a 488 nm laser. Emission of the biosensor was recorded at 500 nm˜530 nm range using sequential scans. Ratio images were generated following a published protocol {Kardash, 2011 #376}. Note, while the published protocol generates YFP/CFP ratio images, we used it to generate Oxidised/Reduced (roGFP2 ratio) ratio images. The roGFP2 ratio at the basal surface of MDCK cysts was used to indicate LOX inhibition. LOX inhibitors were added 30 min prior to imaging.
The inhibition of LOX in cysts treated with LOX inhibitors compared to control (DMSO vehicle treated) cysts is shown in Table 2. For clarity, readout for DMSO treated cysts represents 0% inhibition (no inhibition) and readout for BAPN at 1 mM is used as 100% inhibition (full inhibition).

[7] = 10 μM, MDCK cysts, DMSO = 0% inhibition, BAPN at 1 mM = 100% inhibition, inhibitors added 30 min prior to imaging

SMILES: CCOc1ccc(N2C[C@H]3CN(C(=O)NCCO)C[C@H]3C2)cc1 [Example 1, cis-5-(4-Ethoxyphenyl)-N-(2-hydroxyethyl)hexahydropyrrolo[3,4-c]pyrrole-2(1H)-carboxamide]
T/C, MMT-PyMT breast transgenic model - primary tumour [1]: 0.3
T/C, SW620 human colorectal carcinoma cells (mutant RAS) - primary tumour [2]: 0.55
T/C, PDAC (mouse pancreatic carcinoma) primary tumour a) R172H (p53mut) [3]: a) 0.54
T/C, MDA-MB-231 human breast adenocarcinoma - primary tumour [4]: 0.29
T/C, PDAC (mouse pancreatic carcinoma) primary tumour b) p53wt, LOX o/e [5]: b) 0.35
T/C, MMT-PyMT breast transgenic model - metastases a) Count ([6]; ratio of average lung metastases numbers treated/vehicle): a) 0.14
T/C, MMT-PyMT breast transgenic model - metastases b) Area ([6]; ratio of average lung metastases surface treated/vehicle): b) 0.02
IC50 (LOX; MDCK cysts): < 560 nM

SMILES: CCOc1ccc(N2C[C@]3(C)CN(C(=O)NCCO)C[C@]3(C)C2)cc1 [Example 3, cis-5-(4-Ethoxyphenyl)-N-(2-hydroxyethyl)-3a,6a-dimethylhexahydropyrrolo[3,4-c]pyrrole-2(1H)-carboxamide]
T/C, PDAC (mouse pancreatic carcinoma) primary tumour a) R172H (p53mut) [3]: a) 0.58
T/C, PDAC (mouse pancreatic carcinoma) primary tumour b) p53wt, LOX o/e [5]: b) 0.42
IC50 (LOX; MDCK cysts): 1620 nM
inhibition at 10 µM (LOX; MDCK): 100%

SMILES: O=C(NC1CCCCC1)N1C[C@@H]2CN(c3ccc(N4CCS(=O)(=O)CC4)cc3)C[C@@H]2C1 [Example 9, cis-N-Cyclohexyl-5-(4-(1,1-dioxidothiomorpholino)phenyl)hexahydropyrrolo[3,4-c]pyrrole-2(1H)-carboxamide]
inhibition at 10 µM (LOX; [7]): 100%

SMILES: CCOc1ccc(N2C[C@H]3CN(C(=O)Oc4ccc([N+](=O)[O-])cc4)C[C@H]3C2)cc1 [Example 18, 4-Nitrophenyl 5-(4-ethoxyphenyl)hexahydropyrrolo[3,4-c]pyrrole-2(1H)-carboxylate]
inhibition at 10 µM (LOX; [7]): 97%

SMILES: CCOc1ccc(N2C[C@H]3CN(CCCC#N)C[C@H]3C2)cc1 [Example 2, cis-4-(5-(4-Ethoxyphenyl)hexahydropyrrolo[3,4-c]pyrrol-2(1H)-yl)butanenitrile]
inhibition at 10 µM (LOX; [7]): 65%

Next, values leading:

inhibition at 10 µM (LOX; [7]): 59%
SMILES: C[C@@]12CN(C(=O)NCCO)C[C@]1(C)CN(c1ccc(N3CCS(=O)(=O)CC3)cc1)C2 [Example 30, cis-5-(4-(1,1-Dioxidothiomorpholino)phenyl)-N-(2-hydroxyethyl)-3a,6a-dimethylhexahydropyrrolo[3,4-c]pyrrole-2(1H)-carboxamide]

inhibition at 10 µM (LOX; [7]): 100%
SMILES: CCOc1ccc(N2C[C@H]3CN(C(=O)N4CCOCC4)C[C@H]3C2)cc1 [Example 37]

inhibition at 10 µM (LOX; [7]): 94%
SMILES: C[C@@]12CN(C(=O)NCCO)C[C@]1(C)CN(c1ccc(N3CCN(S(C)(=O)=O)CC3)cc1)C2 [Example 28, cis-N-(2-Hydroxyethyl)-3a,6a-dimethyl-5-(4-(4-(methylsulfonyl)piperazin-1-yl)phenyl)hexahydropyrrolo[3,4-c]pyrrole-2(1H)-carboxamide]

inhibition at 10 µM (LOX; [7]): 72%
SMILES: CCOc1ccc(N2C[C@H]3CN(C(=O)N4CCC(C#N)CC4)C[C@H]3C2)cc1 [Example 42, 1-(cis-5-(4-ethoxyphenyl)octahydropyrrolo[3,4-c]pyrrole-2-carbonyl)piperidine-4-carbonitrile]

inhibition at 10 µM (LOX; [7]): 100%
SMILES: N#CCCCN1C[C@@H]2CN(c3ccc(N4CCS(=O)(=O)CC4)cc3)C[C@@H]2C1 [Example 32, cis-4-(5-(4-(1,1-Dioxidothiomorpholino)phenyl)hexahydropyrrolo[3,4-c]pyrrol-2(1H)-yl)butanenitrile]

Source: patent publication US12018029B2, “Hexahydropyrrolo[3,4-c]pyrrole derivatives useful as LOX inhibitors” (THE INSTITUTE OF CANCER RESEARCH: ROYAL CANCER HOSPITAL, priority 2018, dated 2024)
